The record followed here is patent US4665224A, “Ester of (+) 6-methoxy-α-methyl-2-naphthalene acetic acid having mucosecretolytic, anti-inflammatory, analgesic, antipyretic activity, a process for its preparation and pharmaceutical compositions thereof” (priority 1984, dated 1987).

A short description of one data set: in vivo. The note with it: mouse, in vivo, po. Here is the method:
(§1) Method for studying the lethal dose 50 (LD50) in the mouse after a single administration.
(§2) Groups of 10 Swiss albine, female, adult mice (20-22 grams of body weight) fasting from the evening preceding the test, are treated orally with varying doses of the test drup suspended into hydroxyethylcellulose (0.5% w/v.)
(§3) Thereafter, the animals are fed again.

Another data set has as its system mouse. As to the kind of experiment: in vivo. As to conditions: oral, result in words. Here is the method:
as §1, §2, §3

In a further data set the test system is bronchial mucus. As to the kind of experiment: Bronchosecretagogue activity, quantitative evaluation of the rabbit bronchial secretion. The data set is classed as in vivo, rabbit (brown, male). The note with it: for Percent increase of the bronchial mucus: second 4 h period versus first; for bronchosecretagogue / mucolytic activity: oral, result in words. The text has this: Method of quantitative evaluation of the rabbit bronchial secretion according to Scuri R. et al. Boll. Chim. Farm. 119, 181-7; 1980.
Adult male brown rabbits (2.8-3.5 kg of body weight) to which a T shaped tracheal cannula is applied by surgical operation, as described in the above cited bibliographic reference, are used.
To the cannula, a container for periodical collection of the bronchial secretion is applied.
The study of mucoproduction, started on the fourth day after the operation, is divided into two periods (of 4 hours each), for collecting and measuring the secreted mucus. The action of the test drug is tested by administering it orally at the beginning of the second period of mucus collection and evaluating the percent increase in the mucus production (as measured gravimetrically) in the second period in comparison with the first period.

In data set [1] the test system is carrageenin induced oedema. As to the kind of experiment: Antiphlogistic activity, carrageenin induced oedema. The format is in vivo, rat (Wistar albine, female). As to conditions: 3 h; rat, oral, one hour before carrageenin; paw volume at three hours; read-out: ED50 in mg/kg os. Here is the method: Method of the carrageenin induced oedema according to Winter C. A. et al.--proc. Soc. Exp. Biol. Med--111, 544-7, 1962.
Female Wistar albine rats (120-160 grams of body weight) are utilized.
The test drug is administered orally one hour before injection of a carrageenin water suspension into the right hind paw (1%, injected volume […]).
The volume of the injected paw is recorded simultaneously with the carrageenin injection and three hours after the same by a plethysmometer (U. Basile, mod. 7150-Comerio, Varese).
In general terms: Carrageenan injected into the paw causes an acute inflammation.

The subject of data set [2] is phenylquinone abdominal contractions. Briefly: Analgesic activity, method of phenylquinone (abdominal contractions). The data set is classed as in vivo, mouse (Swiss albine, female). As to conditions: mouse, oral; for ED50: 20 min, 30 minutes before phenylquinone, contractions during 20 minutes, read-out: ED50 in mg/kg os. Here is the method: Female Swiss albine mice (20-25 g), fasting since 2 hours are employed.
The test drug is administered orally 30 minutes before endoperitoneal injection of phenylquinone (0.08 mg/mouse).
The characteristic abdominal contractions are counted individually during a 20 minutes period.

A further data set relates to yeast induced pyrexia. Briefly: Antipyretic activity, yeast induced pyrexia in the rat. The data set is classed as in vivo, rat (Wistar albine, female). The note with it: for ED50: Rattus norvegicus, po, read-out: ED50 in mg/kg os. Here is the method: Method of yeast induced pyrexia in the rat.
Female Wistar albine rats, weighing 100-140 g, are employed. Animals having a rectal basal temperature from 36° to 37° C. are selected.
The testing substances are administered orally simultaneously with the pyretic agent (dry brewer's yeast suspended in water at 20% concentration,administered volume 15 ml/kg, subcutaneously) to groups of 5 animals per dose.
After 4,5,6,7 and 24 hours from the treatment, the rectal temperature of the animals is recorded by an Ellab RM6 probe, connected to an Ellab mod. TE-3 thermometer.
The activity of the drugs is evaluated by utilizing a temperature index which is given by the algebraic sum of the differences in the rectal temperature between the measured values at different times and the basal value.

For data set [3], the system named is gastric lesions or submucosa hemorrhages. Briefly: Gastric tolerability, gastric ulcerogenesys by repeated drug administrations. The data set is classed as in vivo, rat (Wistar albine, female). As to conditions: rat, oral for 5 days, result in words. Here is the method:
Method of gastric ulcerogenesys by repeated drug administrations.
Fed female Wistar albine rats (140-160 g of initial body weight) are used.
The test drug is administered orally for 5 days. At the end of the experiment, the rat's stomach is withdrawn, it is dissected along the lesser curvature, washed and observed in order to disclose the presence of either gastric lesions or manifest submucosa hemorrhages.

The mark [4] stands for this setting: listed as compound of the present invention.

Each structure is given as a SMILES string.

For the compound `COc1ccc2cc([C@H](C)C(=O)OCC3=CCC(C(C)(C)O)CC3)ccc2c1` (single isomer, unassigned; (+)) [CO/1446], the LD50 at 336 h in the data set “in vivo” turned out to be 4000 mg/kg. In addition, the acute toxicity result in the data set with mouse is “very low acute toxicity”. Also, in the data set on bronchial mucus (600 mg/kg os.), the “Percent increase of the bronchial mucus” value is listed as 32%. Further, the results for the “bronchosecretagogue / mucolytic activity” value with bronchial mucus (setting [4]) and in the data set with bronchial mucus (listed as ester of formula (I)) were “has bronchosecretagogue activity in the rabbit” and “marked mucolytic activity of the bronchial secretion”, respectively. Further, the ED50 in data set [1] was 30 mg/kg; in data set [2], 3.9 mg/kg; in the data set on yeast induced pyrexia, 30 mg/kg. In data set [2] (result in words), the “analgesic activity versus (+)6 methoxy-α-methyl-2-naphthalene acetic acid” value is on record as “significantly more active”. Besides, in the data set on yeast induced pyrexia (rat, oral, result in words), the antipyretic activity result is “good antipyretic activity, though lower than the control”. Further, the gastric tolerability result was “well tolerated by the gastric mucose of the rat” in data set [3] (setting [4]), “very good gastric tolerability” in data set [3] (listed as ester of formula (I)) and “better tolerated than (+)6-methoxy-α-methyl-2-naphthalene acetic acid” in data set [3] (listed as such compound).
As for `COc1ccc2cc([C@H](C)C(=O)O)ccc2c1` [(+)6-methoxy-α-methyl-2-naphthalene acetic acid, reference compound], the “Percent increase of the bronchial mucus” value in the data set on bronchial mucus (300 mg/kg os.) turned out to be 0%. The values for the ED50 (in data set [1]; in data set [2]; with yeast induced pyrexia) were 35 mg/kg, 18.5 mg/kg and 14 mg/kg, respectively.

As a reminder, the LD50 is the dose at which mortality reaches 50%. A high value points to lower toxicity.
